Laboratory results as given in patent US10344026B2, “Compositions and methods of targeting mutant K-ras” (NANTBIO, INC., priority 2017, dated 2019).

Legend:
Assay type in all cases: cell-based
[1] = target: T1, wild type K-Ras (Homo sapiens, UniProt P01116); experiment: G-LISA Ras activation, 293H cells transfected with Ras wild-type, EGF stimulated; details: compound 1 hour, then 100 ng/ml EGF 2 minutes
T1 construct: expressed in transfected cells; host or cells: 293H cells
Method in brief: (§1)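 Cells: 293H, Ras plasmid transfection (5 μg). Cpd 3.125-25 μM, 1 h; WT cells + EGF 100 ng/ml, 2 min. Lysed on ice; active Ras by G-LISA.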

[2] = target: T2, K-Ras G12D (Homo sapiens, UniProt P01116, G12D); experiment: G-LISA Ras activation, 293H cells transfected with G12D mutant; details: compound 1 hour
T2 construct: expressed in transfected cells; host or cells: 293H cells
T2 sequence (P01116 whole entry G12D): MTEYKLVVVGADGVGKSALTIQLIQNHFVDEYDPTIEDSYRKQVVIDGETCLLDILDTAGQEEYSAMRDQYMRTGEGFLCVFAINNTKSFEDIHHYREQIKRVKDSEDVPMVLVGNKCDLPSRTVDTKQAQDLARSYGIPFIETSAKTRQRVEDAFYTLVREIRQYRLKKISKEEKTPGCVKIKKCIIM
Method in brief: as §1

[3] = system: Ishikawa (K-Ras wild type cell line); experiment: Viability assay (CellTiterBlue, 72 hr) Ishikawa; details: Homo sapiens, GI50, CellTiterBlue, Ishikawa K-Ras wild-type
Method in brief: (§2)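 Cells were seeded at 1000 per well and allowed 18 hr at 37 °C in CO2 before compound addition (final DMSO 0.5%). After 72 hr exposure, CellTiterBlue was added for 3 hr and fluorescence read at Ex550/Em590. GI50 values were calculated against DMSO (100%) and 100 uM tamoxifen (0%) controls.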

[4] = system: U87-MG (K-Ras wild type cell line); experiment: Viability assay (CellTiterBlue, 72 hr) U87-MG; details: Homo sapiens, U-87 MG, GI50, CellTiterBlue, U87-MG K-Ras wild-type
Method in brief: as §2

[5] = system: HCC827 (K-Ras wild type cell line); experiment: Viability assay (CellTiterBlue, 72 hr) HCC827; details: Homo sapiens, GI50, CellTiterBlue, HCC827 K-Ras wild-type
Method in brief: as §2

[6] = system: A375 (K-Ras wild type cell line); experiment: Viability assay (CellTiterBlue, 72 hr) A375; details: Homo sapiens, A-375, GI50, CellTiterBlue
Method in brief: as §2

[7] = system: Panc1-G12D; experiment: Viability assay (CellTiterBlue, 72 hr) Panc1; details: Homo sapiens, PANC-1, GI50, CellTiterBlue, Panc1 K-Ras G12D, read-out: 72 hr Cell Viability Panc1 (G12D)
Method in brief: as §2

[8] = system: Panc10.05-G12D; experiment: Viability assay (CellTiterBlue, 72 hr) Panc10.05; details: Homo sapiens, Panc1005, GI50, CellTiterBlue, Panc10.05 K-Ras G12D, read-out: 72 hr Cell Viability Panc10.05 (G12D)
Method in brief: as §2

[9] = system: HCT116-G31D; experiment: Viability assay (CellTiterBlue, 72 hr) HCT116; details: Homo sapiens, HCT-116, GI50, CellTiterBlue, HCT116 K-Ras G13D, read-out: 72 hr Cell Viability HCT116 (G13D)
Method in brief: as §2

[10] = system: phospho-ERK in HCC827 (Wild-type); experiment: In-Cell Western phospho-ERK, HCC827; details: Homo sapiens, 1 h; HCC827, one hour treatment; read-out: In-Cell Western HCC827 (Wild-type) Erk (P)
Method in brief: (§3)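 3000 cells/well, 18 hr pre-incubation; 1 hr compound exposure, 0.5% DMSO final. Formaldehyde fix, Triton permeabilization, primary Ab overnight 4° C, secondary 2 hr. Fluorescence imaging; EC50.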

[11] = system: phospho-ERK in A375 (Wild-type); experiment: In-Cell Western phospho-ERK, A375; details: Homo sapiens, A-375, 1 h; A375, one hour treatment; read-out: In-Cell Western A375 (Wild-type) Erk (P)
Method in brief: as §3

[12] = system: phospho-Akt in A375 (Wild-type); experiment: In-Cell Western phospho-Akt, A375; details: Homo sapiens, A-375, 1 h; A375, one hour treatment; read-out: In-Cell Western A375 (Wild-type) Akt (P)
Method in brief: as §3

[13] = system: phospho-ERK in Panc1 (G12D); experiment: In-Cell Western phospho-ERK, Panc1; details: Homo sapiens, PANC-1, 1 h; Panc1, one hour treatment; read-out: In-Cell Western Panc1 (G12D) Erk (P)
Method in brief: as §3

[14] = system: phospho-Akt in Panc1 (G12D); experiment: In-Cell Western phospho-Akt, Panc1; details: Homo sapiens, PANC-1, 1 h; Panc1, one hour treatment; read-out: In-Cell Western Panc1 (G12D) Akt (P)
Method in brief: as §3

[15] = system: phospho-ERK in Panc10.05 (G12D); experiment: In-Cell Western phospho-ERK, Panc10.05; details: Homo sapiens, Panc1005, 1 h; Panc10.05, one hour treatment; read-out: In-Cell Western Panc10.05 (G12D) Erk (P)
Method in brief: as §3

[16] = system: phospho-Akt in Panc10.05 (G12D); experiment: In-Cell Western phospho-Akt, Panc10.05; details: Homo sapiens, Panc1005, 1 h; Panc10.05, one hour treatment; read-out: In-Cell Western Panc10.05 (G12D) Akt (P)
Method in brief: as §3

T1 sequence (P01116 whole entry): as the sequence (P01116 whole entry G12D) above, with D12G counted along it

| SMILES | IC50 [1] | IC50 [2] | IC50 [3] | IC50 [4] | IC50 [5] | IC50 [6] | IC50 [7] | IC50 [8] | IC50 [9] | EC50 [10] | EC50 [11] | EC50 [12] | EC50 [13] | EC50 [14] | EC50 [15] | EC50 [16] |
| --- | --- | --- | --- | --- | --- | --- | --- | --- | --- | --- | --- | --- | --- | --- | --- | --- |
| Cc1nc(C(C)C)oc1C(=O)Nc1nc(-c2ccc3c(c2)CCC(=O)N3Cc2cccnc2)cs1 [Compound 91] | 11.7 µM | 8.4 µM | > 25 µM | > 25 µM | 3 µM | > 25 µM | 5 µM | 2 µM | 1.5 µM | 11 µM | 5 µM | 5 µM | 8 µM | 4 µM | 1.4 µM | 12 µM |
| COc1cccc(CN2C(=O)CCc3cc(-c4csc(NC(=O)c5oc(C)nc5C)n4)ccc32)c1OC [Compound 93, N-(4-(1-(2,3-dimethoxybenzyl)-2-oxo-1,2,3,4-tetrahydroquinolin-6-yl)thiazol-2-yl)-2,4-dimethyloxazole-5-carboxamide] | 10 µM | 8.6 µM | > 25 µM | > 25 µM | > 25 µM | > 25 µM | 9 µM | 5 µM | 4 µM | > 25 µM | > 25 µM | > 25 µM | 8 µM | 6 µM | 1.2 µM | 15 µM |
| COCCN1C(=O)CCc2cc(-c3csc(NC(=O)c4oc(C)nc4C)n3)ccc21 [Compound 95, N-(4-(1-(2-methoxyethyl)-2-oxo-1,2,3,4-tetrahydroquinolin-6-yl)thiazol-2-yl)-2,4-dimethyloxazole-5-carboxamide] | 15.4 µM | 5.1 µM | > 25 µM | > 25 µM | 5 µM | > 25 µM | 7 µM | 4 µM | 4 µM | 10 µM | > 25 µM | > 25 µM | 10 µM | 6 µM | 2 µM | 14 µM |
| COCCCN1C(=O)CCc2cc(-c3csc(NC(=O)c4oc(C)nc4C)n3)ccc21 [Compound 96, N-(4-(1-(3-methoxypropyl)-2-oxo-1,2,3,4-tetrahydroquinolin-6-yl)thiazol-2-yl)-2,4-dimethyloxazole-5-carboxamide] | 12.1 µM | 5 µM | > 25 µM | > 25 µM | 4 µM | > 25 µM | 4 µM | 3 µM | 3 µM | 7 µM | 6 µM | 6 µM | 7 µM | 4 µM | 1.1 µM | 9 µM |
| Cc1nc(C)c(C(=O)Nc2nc(-c3ccc4c(c3)CCC(=O)N4CCN(C)C)cs2)o1 [Compound 97, N-(4-(1-(2-(dimethylamino)ethyl)-2-oxo-1,2,3,4-tetrahydroquinolin-6-yl)thiazol-2-yl)-2,4-dimethyloxazole-5-carboxamide] | 12.6 µM | 8.1 µM | > 25 µM | > 25 µM | 5 µM | > 25 µM | 9 µM | 4 µM | 5 µM | > 25 µM | 8 µM | 10 µM | 5 µM | 6 µM | 1.2 µM | 12 µM |
| COC(=O)CCN1C(=O)CCc2cc(-c3csc(NC(=O)c4oc(C)nc4C)n3)ccc21 [Compound 99, methyl 3-(6-(2-(2,4-dimethyloxazole-5-carboxamido)thiazol-4-yl)-2-oxo-3,4-dihydroquinoiolin-1 (2H)-yl)propanoate] | 10.2 µM | 6.7 µM | 4 µM | > 25 µM | > 25 µM | 6 µM | 6 µM | 6 µM | > 25 µM | 5 µM | > 25 µM | > 25 µM | 14 µM | > 25 µM | 5 µM | 10 µM |
| COC(=O)CCCN1C(=O)CCc2cc(-c3csc(NC(=O)c4oc(C)nc4C)n3)ccc21 [Compound 100, methyl 4-(6-(2-(2,4-dimethyloxazole-5-carboxamido)thiazol-4-yl)-2-oxo-3,4-dihydroquinolin-1 (2H)-yl)butanoate] | 9.5 µM | 5.5 µM | 3 µM | > 25 µM | > 25 µM | 4 µM | 5 µM | 5 µM | > 25 µM | 3 µM | 4 µM | 5 µM | 17 µM | 25 µM | 3 µM | 7 µM |
| CCc1nc(C)c(C(=O)Nc2nc(-c3ccc4c(c3)CCC(=O)N4Cc3cccnc3)cs2)s1 [Compound 106, 2-ethyl-4-methyl-N-(4-(2-oxo-1-(pyridin-3-ylmethyl)-1,2,3,4-tetrahydroquinoinolin-6-yl)thiazol-2-yl)thiazole-5-carboxamide] | 9.6 µM | 4.4 µM | > 25 µM | > 25 µM | > 25 µM | 22 µM | 12 µM | 3 µM | 6 µM | 7 µM | 20 µM | > 25 µM | 5 µM | 25 µM | 10 µM | > 25 µM |
| Cc1nc(C(C)C)sc1C(=O)Nc1nc(-c2ccc3c(c2)CCC(=O)N3Cc2cccnc2)cs1 [Compound 107, 2-isopropyl-4-methyl-N-(4-(2-oxo-1-(pyridin-3-ylmethyl)-1,2,3,4-tetrahydroquinolin-6-yl)thiazol-2-yl)thiazole-5-carboxamide] | 9.7 µM | 6.6 µM | > 25 µM | > 25 µM | > 25 µM | 19 µM | > 25 µM | 2 µM | 6 µM | 6 µM | 16 µM | > 25 µM | 6 µM | > 25 µM | 10 µM | > 25 µM |
| Cc1nn(C)cc1C(=O)Nc1nc(-c2ccc3c(c2)CCC(=O)N3Cc2cccnc2)cs1 [Compound 112, 1,3-dimethyl-N-(4-(2-oxo-1-(pyridin-3-ylmethyl)-1,2,3,4-tetrahydroquinolin-6-yl)thiazol-2-yl)-1H-pyrazole-4-carboxamide] | 10.7 µM | 10 µM | > 25 µM | > 25 µM | 4 µM | > 25 µM | 5 µM | 3 µM | 2 µM | 17 µM | 8 µM | 11 µM | 4 µM | 5 µM | 1 µM | 18 µM |
